The source of these data is US12139520B2 (priority 2020, dated 2024).

Numbered stars: 1 amine (or outer) side, 2 acyl side, 3 side chain; on linkers, the order of the positions; unused ones are H or OH. Bridge positions count the residues as written; N and C are the ends. Square brackets hold non-standard residues; d marks the D form. Peptide text beside a SMILES is read from it. * marks the point of attachment. C20 diacid = O=C(O)CCCCCCCCCCCCCCCCCCC(=O)*; γGlu = O=C(O)[C@H](CCC(=O)[*:2])N[*:1]; Hyp = O=C(O)[C@@H]1C[C@@H](O)CN1

For this assay, the target named is T1, hAMY3 receptor (Homo sapiens, UniProt O60896+P30988).
T1 sequence (P30988 25-474): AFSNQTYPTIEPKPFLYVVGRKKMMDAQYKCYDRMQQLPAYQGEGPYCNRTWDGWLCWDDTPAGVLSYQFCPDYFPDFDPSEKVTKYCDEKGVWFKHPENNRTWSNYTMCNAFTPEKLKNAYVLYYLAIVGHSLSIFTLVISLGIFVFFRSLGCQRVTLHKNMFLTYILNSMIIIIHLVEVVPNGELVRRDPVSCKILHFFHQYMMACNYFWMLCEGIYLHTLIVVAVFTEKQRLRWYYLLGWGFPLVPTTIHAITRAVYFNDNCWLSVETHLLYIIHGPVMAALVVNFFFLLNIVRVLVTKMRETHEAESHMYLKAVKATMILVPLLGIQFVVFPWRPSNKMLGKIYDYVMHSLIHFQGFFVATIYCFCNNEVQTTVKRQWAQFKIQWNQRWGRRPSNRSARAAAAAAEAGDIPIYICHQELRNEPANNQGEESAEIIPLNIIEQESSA
T1 sequence (O60896 24-148 partner): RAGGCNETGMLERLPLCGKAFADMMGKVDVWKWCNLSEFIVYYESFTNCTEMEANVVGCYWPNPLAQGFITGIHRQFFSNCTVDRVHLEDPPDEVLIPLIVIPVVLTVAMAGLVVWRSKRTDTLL
Description: cAMP assay for in vitro receptor activation, hAMY3-R. It is filed as cell-based. As to conditions: cAMP assay, hAMY3 receptor; read-out: hAMY3R EC50. Put shortly:
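Read-out is TR-FRET cAMP signal, recorded one hour after reagent addition, following 30 min room-temperature stimulation of stable hAMY3 cells with graded compound doses in casein/IBMX (0.5 mM) buffer.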
On the technique in general: Changes in cAMP serve as a functional read-out for many G protein-coupled receptors.
What is called EC50 is the concentration that produces a half-maximal response. As for `CC[C@H](C)[C@H](NC(=O)[C@H](CCC(N)=O)NC(=O)[C@H](Cc1c[nH]cn1)NC(=O)[C@H](C)NC(=O)[C@H](CC(C)C)NC(=O)[C@H](CCCNC(=N)N)NC(=O)[C@H](CCC(N)=O)NC(=O)[C@@H](NC(=O)[C@@H](NC(=O)[C@@H]1CSSC[C@H](NC(=O)CN)C(=O)N[C@@H](CCCNC(=N)N)C(=O)N[C@@H](Cc2ccccc2)C(=O)NCC(=O)N[C@@H]([C@@H](C)O)C(=O)N1)[C@@H](C)O)C(C)C)C(=O)N[C@@H](Cc1ccc(O)cc1)C(=O)N[C@@H](CCC(N)=O)C(=O)N[C@@H](Cc1ccccc1)C(=O)N[C@H](C(=O)N[C@@H](CC(=O)O)C(=O)N[C@@H](CCCCN)C(=O)N[C@@H](CC(=O)O)C(=O)N[C@@H](CCCCN)C(=O)N[C@@H](CC(=O)O)C(=O)N[C@@H](CC(N)=O)C(=O)N[C@H](C(=O)N[C@@H](C)C(=O)N1CCC[C@H]1C(=O)N[C@@H](CCCNC(=N)N)C(=O)N[C@@H](CO)C(=O)N[C@@H](CCCCN)C(=O)N[C@H](C(=O)NCC(=O)N1CCC[C@H]1C(=O)N[C@@H](CCC(N)=O)C(=O)NCC(=O)N[C@@H](Cc1ccc(O)cc1)C(N)=O)C(C)C)C(C)C)[C@@H](C)O` [compound 375] (H-GCRFGTCTVQRLAHQIYQFTDKDKDNVAPRSKVGPQGY-NH2; disulfide 2-7; N-terminus assumed), the EC50 worked out at 0.022 nM. The same measure for `CC[C@H](C)[C@H](NC(=O)[C@H](CCC(N)=O)NC(=O)[C@H](Cc1c[nH]cn1)NC(=O)[C@H](C)NC(=O)[C@H](CC(C)C)NC(=O)[C@H](CCCNC(=N)N)NC(=O)[C@H](CCC(N)=O)NC(=O)[C@@H](NC(=O)[C@@H](NC(=O)[C@@H]1CSSC[C@H](NC(=O)CNC(=O)CC[C@H](NC(=O)CCCCCCCCCCCCCCCCCCC(=O)O)C(=O)O)C(=O)N[C@@H](CCCNC(=N)N)C(=O)N[C@@H](Cc2ccccc2)C(=O)N[C@@H](C)C(=O)N[C@@H]([C@@H](C)O)C(=O)N1)[C@@H](C)O)C(C)C)C(=O)N[C@@H](Cc1ccc(O)cc1)C(=O)N[C@@H](CCC(N)=O)C(=O)N[C@@H](Cc1ccccc1)C(=O)N[C@H](C(=O)N[C@@H](CC(=O)O)C(=O)N[C@@H](CCCCN)C(=O)N[C@@H](CC(=O)O)C(=O)N[C@@H](CCCCN)C(=O)N[C@@H](CC(=O)O)C(=O)N[C@@H](CC(N)=O)C(=O)N[C@H](C(=O)N[C@@H](C)C(=O)N1CCC[C@H]1C(=O)N[C@@H](CCCNC(=N)N)C(=O)N[C@H](C(=O)N[C@@H](CCCCN)C(=O)N[C@H](C(=O)NCC(=O)N1CCC[C@H]1C(=O)N[C@@H](CCC(N)=O)C(=O)NCC(=O)N[C@@H](Cc1ccc(O)cc1)C(N)=O)C(C)C)[C@@H](C)O)C(C)C)[C@@H](C)O` [compound 380] ({C20 diacid-γGlu}-GCRFATCTVQRLAHQIYQFTDKDKDNVAPRTKVGPQGY-NH2; disulfide 2-7): 0.031 nM; for `CC[C@H](C)[C@H](NC(=O)[C@H](CCC(N)=O)NC(=O)[C@H](Cc1c[nH]cn1)NC(=O)[C@H](C)NC(=O)[C@H](CC(C)C)NC(=O)[C@H](CCCNC(=N)N)NC(=O)[C@H](CCC(N)=O)NC(=O)[C@@H](NC(=O)[C@@H](NC(=O)[C@@H]1CSSC[C@H](NC(=O)[C@H](CCCCN)NC(=O)CC[C@H](NC(=O)CCCCCCCCCCCCCCCCCCC(=O)O)C(=O)O)C(=O)N[C@@H](CC(N)=O)C(=O)N[C@@H]([C@@H](C)O)C(=O)N[C@@H](C)C(=O)N[C@@H]([C@@H](C)O)C(=O)N1)[C@@H](C)O)C(C)C)C(=O)N[C@@H](Cc1ccc(O)cc1)C(=O)N[C@@H](CCC(N)=O)C(=O)N[C@@H](Cc1ccccc1)C(=O)N[C@@H](C)C(=O)N[C@@H](CC(=O)O)C(=O)N[C@@H](CCCCN)C(=O)N[C@@H](CC(=O)O)C(=O)N[C@@H](CCCCN)C(=O)N[C@@H](CC(=O)O)C(=O)N[C@@H](CC(N)=O)C(=O)N[C@H](C(=O)N[C@@H](C)C(=O)N1CCC[C@H]1C(=O)N1CCC[C@H]1C(=O)N[C@H](C(=O)N[C@@H](CC(N)=O)C(=O)N[C@H](C(=O)NCC(=O)N[C@@H](CO)C(=O)N[C@@H](CC(N)=O)C(=O)NCC(=O)N1C[C@H](O)C[C@H]1C(N)=O)C(C)C)[C@@H](C)O)C(C)C` [compound 83] ({C20 diacid-γGlu}-KCNTATCTVQRLAHQIYQFADKDKDNVAPPTNVGSNG[Hyp]-NH2; disulfide 2-7): 0.015 nM.

On to `CC[C@H](C)[C@H](NC(=O)[C@H](CCC(N)=O)NC(=O)[C@H](Cc1c[nH]cn1)NC(=O)[C@H](C)NC(=O)[C@H](CC(C)C)NC(=O)[C@H](CCCNC(=N)N)NC(=O)[C@H](CCC(N)=O)NC(=O)[C@@H](NC(=O)[C@@H](NC(=O)[C@@H]1CSSC[C@H](NC(=O)[C@@H](N)CCCCN)C(=O)N[C@@H](CC(N)=O)C(=O)N[C@@H](Cc2ccccc2)C(=O)N[C@@H](C)C(=O)N[C@@H]([C@@H](C)O)C(=O)N1)[C@@H](C)O)C(C)C)C(=O)N[C@@H](Cc1ccc(O)cc1)C(=O)N[C@@H](CCC(N)=O)C(=O)N[C@@H](Cc1ccccc1)C(=O)N[C@H](C(=O)N[C@@H](CC(=O)O)C(=O)N[C@@H](CCCCN)C(=O)N[C@@H](CC(=O)O)C(=O)N[C@@H](CCCCN)C(=O)N[C@@H](CC(=O)O)C(=O)N[C@@H](CC(N)=O)C(=O)N[C@H](C(=O)N[C@@H](C)C(=O)N1CCC[C@H]1C(=O)N[C@@H](CCCNC(=N)N)C(=O)N[C@H](C(=O)N[C@@H](CCCCN)C(=O)N[C@H](C(=O)NCC(=O)N[C@@H](CO)C(=O)N[C@@H](CC(N)=O)C(=O)NCC(=O)N[C@@H](Cc1ccc(O)cc1)C(N)=O)C(C)C)[C@@H](C)O)C(C)C)[C@@H](C)O` [compound 361] (H-KCNFATCTVQRLAHQIYQFTDKDKDNVAPRTKVGSNGY-NH2; disulfide 2-7; N-terminus assumed), for which the EC50 stood at 0.006 nM. With `CC(C)C[C@H](NC(=O)[C@H](CCCNC(=N)N)NC(=O)[C@H](CCC(N)=O)NC(=O)[C@@H](NC(=O)[C@@H](NC(=O)[C@@H]1CSSC[C@H](NC(=O)CN)C(=O)N[C@@H](CCCNC(=N)N)C(=O)N[C@@H](Cc2ccccc2)C(=O)NCC(=O)N[C@@H]([C@@H](C)O)C(=O)N1)[C@@H](C)O)C(C)C)C(=O)N[C@@H](C)C(=O)N[C@@H](Cc1c[nH]cn1)C(=O)N[C@@H](Cc1ccccc1)C(=O)N[C@@H](CC(C)C)C(=O)N[C@@H](Cc1ccc(O)cc1)C(=O)N[C@@H](CCC(N)=O)C(=O)N[C@@H](Cc1ccccc1)C(=O)N[C@H](C(=O)N[C@@H](CC(=O)O)C(=O)N[C@@H](CCCCN)C(=O)N[C@@H](CC(=O)O)C(=O)N[C@@H](CCCCN)C(=O)N[C@@H](CC(=O)O)C(=O)N[C@@H](CC(N)=O)C(=O)N[C@H](C(=O)N[C@@H](C)C(=O)N1CCC[C@H]1C(=O)N[C@@H](CCCNC(=N)N)C(=O)N[C@H](C(=O)N[C@@H](CC(N)=O)C(=O)N[C@H](C(=O)NCC(=O)N[C@@H](CO)C(=O)N[C@@H](CC(N)=O)C(=O)N[C@H](C(=O)N[C@@H](Cc1ccc(O)cc1)C(N)=O)[C@@H](C)O)C(C)C)[C@@H](C)O)C(C)C)[C@@H](C)O` [compound 56] (H-GCRFGTCTVQRLAHFLYQFTDKDKDNVAPRTNVGSNTY-NH2; disulfide 2-7; N-terminus assumed) the figure was 0.012 nM.

Regarding `CC[C@H](C)[C@H](NC(=O)[C@H](CCC(N)=O)NC(=O)[C@H](Cc1c[nH]cn1)NC(=O)[C@H](C)NC(=O)[C@H](CC(C)C)NC(=O)[C@H](CCCNC(=N)N)NC(=O)[C@H](CCC(N)=O)NC(=O)[C@@H](NC(=O)[C@@H](NC(=O)[C@@H]1CSSC[C@H](NC(=O)[C@@H](N)CCCCN)C(=O)N[C@@H](CC(N)=O)C(=O)N[C@@H](Cc2ccccc2)C(=O)N[C@@H](C)C(=O)N[C@@H]([C@@H](C)O)C(=O)N1)[C@@H](C)O)C(C)C)C(=O)N[C@@H](Cc1ccc(O)cc1)C(=O)N[C@@H](CCC(N)=O)C(=O)N[C@@H](Cc1ccccc1)C(=O)N[C@H](C(=O)N[C@@H](CC(=O)O)C(=O)N[C@@H](CCCCN)C(=O)N[C@@H](CC(=O)O)C(=O)N[C@@H](CCCCN)C(=O)N[C@@H](CC(=O)O)C(=O)N[C@@H](CC(N)=O)C(=O)N[C@H](C(=O)N[C@@H](C)C(=O)N1CCC[C@H]1C(=O)N1CCC[C@H]1C(=O)N[C@H](C(=O)N[C@@H](CCC(=O)O)C(=O)N[C@H](C(=O)NCC(=O)N[C@@H](CO)C(=O)N[C@@H](CC(N)=O)C(=O)NCC(=O)N1C[C@H](O)C[C@H]1C(N)=O)C(C)C)[C@@H](C)O)C(C)C)[C@@H](C)O` [compound 10] (H-KCNFATCTVQRLAHQIYQFTDKDKDNVAPPTEVGSNG[Hyp]-NH2; disulfide 2-7; N-terminus assumed), the EC50 worked out at 0.007 nM. Take `CC[C@H](C)[C@H](NC(=O)[C@H](CCCCN)NC(=O)[C@H](CO)NC(=O)[C@H](CCCNC(=N)N)NC(=O)[C@@H]1CCCN1C(=O)[C@H](C)NC(=O)[C@@H](NC(=O)[C@H](CC(N)=O)NC(=O)[C@H](CC(=O)O)NC(=O)[C@H](CCCCN)NC(=O)[C@H](CC(=O)O)NC(=O)[C@H](CCCCN)NC(=O)[C@H](CC(=O)O)NC(=O)[C@@H](NC(=O)[C@H](Cc1ccccc1)NC(=O)[C@H](CCC(N)=O)NC(=O)[C@H](Cc1ccc(O)cc1)NC(=O)[C@@H](NC(=O)[C@H](CCC(N)=O)NC(=O)[C@H](Cc1c[nH]cn1)NC(=O)[C@H](C)NC(=O)[C@H](CC(C)C)NC(=O)[C@H](CCCNC(=N)N)NC(=O)[C@H](CCC(N)=O)NC(=O)[C@@H](NC(=O)[C@@H](NC(=O)[C@@H]1CSSC[C@H](NC(=O)CN)C(=O)N[C@@H](CCCNC(=N)N)C(=O)N[C@@H]([C@@H](C)O)C(=O)NCC(=O)N[C@@H]([C@@H](C)O)C(=O)N1)[C@@H](C)O)C(C)C)[C@@H](C)CC)[C@@H](C)O)C(C)C)C(=O)NCC(=O)N1CCC[C@H]1C(=O)N[C@@H](CC(N)=O)C(=O)NCC(=O)N1C[C@H](O)C[C@H]1C(N)=O` [compound 157] (H-GCRTGTCTVQRLAHQIYQFTDKDKDNVAPRSKIGPNG[Hyp]-NH2; disulfide 2-7; N-terminus assumed): the EC50 amounted to 0.047 nM.
